The results in this text go back to PubChem BioAssay (NCI).

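Briefly, cells in 96-well plates were exposed to five compound concentrations for 48 h, and endpoints were estimated by linear interpolation. GI50 is the concentration that inhibits growth by half. TGI marks complete inhibition of growth.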

Test systems include MCF7 breast; SR leukemia; BT-549 breast; SNB-19 CNS; EKVX NSCLC; 786-0 renal; HCT-15 colon; SF-295 CNS; SK-OV-3 ovarian; HOP-62 NSCLC.
Common to all, as to test: DTP human tumour cell line panel, 48 h

Broadly, the GI50 is the concentration that inhibits growth by half. In general, TGI refers to the concentration at which net growth stops. Higher therefore signals lower sensitivity of the cells. For the compound `C/C=C(\C)C(=O)O[C@@H]1C=CC(=O)O[C@H]1CNC(=O)[C@H](C)O`, the GI50 with MCF7 breast is 15 µM; in the experiment with SR leukemia, 6.78 µM; in the experiment with BT-549 breast, 12.5 µM; with SNB-19 CNS, 27 µM; in the experiment on EKVX NSCLC, 20.9 µM; in the experiment with 786-0 renal, 23.6 µM. Also, the GI50 with HCT-15 colon is 18.5 µM; in the experiment on SF-295 CNS, 27.7 µM; in the experiment with SK-OV-3 ovarian, 39.4 µM; in the experiment on HOP-62 NSCLC, 26.4 µM. Besides, the TGI in the experiment with MCF7 breast is 46.7 µM; with SR leukemia it was 48.6 µM; with BT-549 breast it was 28 µM; with SNB-19 CNS, more than 74.8 µM; with EKVX NSCLC it was 49.5 µM; with 786-0 renal, 73.5 µM. Besides, the TGI in the experiment with HCT-15 colon was 45.4 µM; in the experiment on SF-295 CNS, more than 66.7 µM; with SK-OV-3 ovarian, 98.9 µM; with HOP-62 NSCLC, 65.3 µM.

Turning to `CC[Si](CC)(CC)OC1[C@@H](O[Si](CC)(CC)CC)[C@@H](CNC(=O)NC)O[C@H]1n1cnc2c(NC(=O)Nc3ccccc3)ncnc21` (stereo partly drawn), the GI50 with MCF7 breast was 3.24 µM; in the experiment on SR leukemia it was 2.36 µM; in the experiment with BT-549 breast it was 3 µM; in the experiment on SNB-19 CNS, 5.28 µM; with 786-0 renal, 2.96 µM; in the experiment with HCT-15 colon, 3.78 µM. The results for the GI50 in the experiment on SF-295 CNS, in the experiment on SK-OV-3 ovarian and in the experiment with HOP-62 NSCLC were 2.89 µM, 14.7 µM and 16 µM, respectively. The TGI in the experiment with MCF7 breast is 14.3 µM; in the experiment on SR leukemia it was 5.2 µM; in the experiment with BT-549 breast, 12.2 µM; in the experiment with SNB-19 CNS, more than 100 µM; with 786-0 renal, 10.7 µM; in the experiment with HCT-15 colon, more than 100 µM. The TGI was 11.7 µM in the experiment with SF-295 CNS, more than 100 µM in the experiment on SK-OV-3 ovarian and more than 100 µM in the experiment with HOP-62 NSCLC.

For `COc1ccc(-c2nnc(Nc3nc(O)c(C4=c5cc(Br)ccc5=NC4=O)s3)o2)cc1`, the GI50 is more than 43.9 µM in the experiment with MCF7 breast; 1.6 µM with SR leukemia; 6.49 µM in the experiment on BT-549 breast; 28.1 µM in the experiment with SNB-19 CNS; 9.89 µM in the experiment with EKVX NSCLC; 25.1 µM with 786-0 renal. Also, the GI50 was 18.4 µM in the experiment with HCT-15 colon, 20.6 µM in the experiment on SF-295 CNS, 52 µM in the experiment on SK-OV-3 ovarian and 24 µM in the experiment on HOP-62 NSCLC. Besides, the TGI with MCF7 breast was more than 100 µM; in the experiment with SR leukemia it was 35.9 µM; in the experiment with BT-549 breast it was 27.9 µM; with SNB-19 CNS, more than 83.4 µM; in the experiment on EKVX NSCLC, more than 55.8 µM; with 786-0 renal, more than 77.8 µM. The total growth inhibition concentration (TGI) with HCT-15 colon is more than 63 µM; in the experiment with SF-295 CNS it was 60.4 µM; in the experiment on SK-OV-3 ovarian, more than 100 µM; in the experiment on HOP-62 NSCLC, more than 71.1 µM.

Turning to `O=C(Nc1cc2cc([N+](=O)[O-])ccc2oc1=O)c1cccs1`, the TGI in the experiment on MCF7 breast was 85.2 µM; with SR leukemia, more than 100 µM; with BT-549 breast, more than 100 µM; in the experiment on SNB-19 CNS it was more than 100 µM; in the experiment with EKVX NSCLC, more than 100 µM; with 786-0 renal, more than 100 µM. The TGI with SF-295 CNS and in the experiment on HOP-62 NSCLC was more than 100 µM in each case.

For the compound `NCCCNc1nc2ccccc2c2c(=O)c3cc(F)cc(Cl)c3sc12`, the GI50 in the experiment on MCF7 breast was 1.19 µM; with SR leukemia it was 1.19 µM; in the experiment on BT-549 breast, 12.9 µM; in the experiment on SNB-19 CNS, 1.77 µM; in the experiment with EKVX NSCLC, 1.56 µM; in the experiment with 786-0 renal, 1.45 µM. In addition, the values for the GI50 with HCT-15 colon, in the experiment with SF-295 CNS and in the experiment with HOP-62 NSCLC were 1.57 µM, 1.75 µM and 1.77 µM, respectively. Besides, the TGI in the experiment with MCF7 breast was found to be 2.68 µM; in the experiment with SR leukemia, 4.04 µM; in the experiment on BT-549 breast, 26.7 µM; in the experiment with SNB-19 CNS, 3.33 µM; in the experiment on EKVX NSCLC it was 3.07 µM; in the experiment with 786-0 renal, 2.9 µM. Further, the total growth inhibition concentration (TGI) in the experiment on HCT-15 colon worked out at 3.01 µM; in the experiment with SF-295 CNS, 3.2 µM; in the experiment with HOP-62 NSCLC, 3.9 µM.

Regarding `COc1cccc(-c2nn(-c3ccccc3)cc2-c2ccnc(NCCCNS(=O)(=O)c3ccc(C(F)(F)F)cc3)c2)c1`, the GI50 in the experiment with MCF7 breast is 3.87 µM; in the experiment on SR leukemia, 1.67 µM; in the experiment on BT-549 breast, 4.41 µM; in the experiment with EKVX NSCLC it was 4.61 µM; in the experiment on 786-0 renal, 4.6 µM; in the experiment on HCT-15 colon, 4.08 µM. Moreover, the GI50 in the experiment on SF-295 CNS is 3.17 µM; with SK-OV-3 ovarian it was 4.82 µM; with HOP-62 NSCLC, 13.8 µM. Further, the TGI is more than 100 µM in the experiment on MCF7 breast; 4.84 µM with SR leukemia; more than 100 µM in the experiment with BT-549 breast; more than 100 µM in the experiment on EKVX NSCLC; more than 100 µM with 786-0 renal; more than 100 µM in the experiment on HCT-15 colon. In addition, the TGI with SF-295 CNS, in the experiment on SK-OV-3 ovarian and in the experiment on HOP-62 NSCLC was more than 100 µM in each case.

Turning to `Cc1ccc(/C(=C/C=C(C#N)C#N)Sc2nc3ccccc3s2)cc1`, the GI50 was 4.3 µM in the experiment with MCF7 breast; more than 100 µM in the experiment with SR leukemia; 0.793 µM in the experiment with BT-549 breast; 14.8 µM with SNB-19 CNS; 17.7 µM in the experiment on EKVX NSCLC; 2.43 µM in the experiment with 786-0 renal. The GI50 with SF-295 CNS is 5.77 µM; in the experiment on SK-OV-3 ovarian, 14.1 µM; in the experiment on HOP-62 NSCLC, 10.1 µM. The TGI in the experiment with MCF7 breast is 32.7 µM; in the experiment on SR leukemia, more than 100 µM; in the experiment with BT-549 breast, 3.65 µM; in the experiment on SNB-19 CNS, 34.1 µM; with EKVX NSCLC it was 39.4 µM; with 786-0 renal, 6.78 µM. Besides, the TGI in the experiment with SF-295 CNS is 21 µM; with SK-OV-3 ovarian, 30 µM; in the experiment with HOP-62 NSCLC it was 30.3 µM.

For the compound `COc1ccc(NC(=O)c2cccc(C3CCc4c(cc(OC)c(OC)c4OC)O3)c2)cc1` (stereo not drawn), the GI50 in the experiment on MCF7 breast was 3.11 µM; in the experiment with SR leukemia, 0.419 µM; in the experiment on BT-549 breast, 2.83 µM; in the experiment with SNB-19 CNS it was 4.16 µM; in the experiment with EKVX NSCLC it was 3.28 µM; in the experiment with 786-0 renal, 4.18 µM. Also, the results for the GI50 with HCT-15 colon, in the experiment on SK-OV-3 ovarian and in the experiment on HOP-62 NSCLC were 1.96 µM, 3.54 µM and 2.86 µM, respectively. In addition, the TGI in the experiment on MCF7 breast, in the experiment on SR leukemia, in the experiment on BT-549 breast, in the experiment on SNB-19 CNS, with EKVX NSCLC and in the experiment with 786-0 renal was more than 100 µM in each case. In addition, the concentration for total growth inhibition (TGI) with HCT-15 colon, with SK-OV-3 ovarian and in the experiment with HOP-62 NSCLC was more than 100 µM each time.
